“And” between values parts separate entries of the source, which are not always exact repeats. Equal values may be shown once.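 How tested: cells in 96-well plates exposed to compound for 48 hours at five concentrations. GI50 is the concentration that inhibits growth by half. Definition used: TGI = concentration required for complete inhibition of growth.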
What was measured:
Test in all cases: inhibition of tumour cell growth, NCI panel, 48 h
A549 NSCLC = system: A549 NSCLC
NCI-H460 lung = system: NCI-H460 lung
OVCAR-8 ovarian = system: OVCAR-8 ovarian
KM12 colon = system: KM12 colon
RPMI-8226 leukemia = system: RPMI-8226 leukemia
COLO 205 colon = system: COLO 205 colon
SW-620 colon = system: SW-620 colon
TK-10 renal = system: TK-10 renal
SK-OV-3 ovarian = system: SK-OV-3 ovarian
U251 CNS = system: U251 CNS

Row | Structure (SMILES) | TGI (A549 NSCLC) [µM] | TGI (NCI-H460 lung) [µM] | TGI (OVCAR-8 ovarian) [µM] | TGI (KM12 colon) [µM] | TGI (RPMI-8226 leukemia) [µM] | TGI (COLO 205 colon) [µM] | TGI (SW-620 colon) [µM] | TGI (TK-10 renal) [µM] | TGI (SK-OV-3 ovarian) [µM] | TGI (U251 CNS) [µM] | GI50 (A549 NSCLC) | GI50 (NCI-H460 lung) | GI50 (OVCAR-8 ovarian) | GI50 (KM12 colon) | GI50 (RPMI-8226 leukemia) | GI50 (COLO 205 colon) | GI50 (SW-620 colon) | GI50 (TK-10 renal) [µM] | GI50 (SK-OV-3 ovarian) [µM] | GI50 (U251 CNS)
1 | Cc1ccccc1SC(/C=C/NNC1=NC(c2ccccc2)C(c2ccccc2)=NN1)c1ccccc1 (stereo not drawn) | 46.7 | > 100 | 40 | > 100 | > 100 | > 100 | > 100 | 43.2 | 45.3 | 64.7 |  |  |  |  |  |  |  |  |  | 
2 | C[C@]12CC[C@@H]3c4ccc(O)cc4CC[C@H]3[C@@H]1CC(Cc1ccccc1)(Cc1ccccc1)C2=O | 48.4 | 38.1 | 61.3 | 38 | 23.5 | 31.9 | 30 | 43 | 37.4 | 31.8 | 18.5 µM | 12.1 µM | 21.5 µM | 11.5 µM | 5.57 µM | 13.4 µM | 14.2 µM | 19.9 | 21.2 | 16 µM
3 | N#Cc1c(N)c(C(=O)c2ccc3c(c2)OCCO3)n2c1CCCC2 | > 100 | > 100 | > 100 | > 100 | > 100 | > 23.5 | > 100 | > 100 | > 38.3 | > 100 | 4.27 µM | 3.19 µM | 4.21 µM | 1.37 µM | 3.93 µM | 1.82 µM | 2.07 µM | > 28.5 | 5.47 | 4.07 µM
4 | CC(=O)NNc1ncc(C(=O)/C=C/c2ccccc2C)s1 | > 100 | > 100 | > 100 | > 100 | > 100 | > 100 | > 100 | > 100 | > 100 | > 100 |  |  |  |  |  |  |  |  |  | 
5 | O=C(N/N=C/c1ccc([N+](=O)[O-])cc1)c1ccccc1Nc1ccnc(C(F)(F)F)c1 | 66 | 52.9 | 49.8 | 55.4 | 14.5 | 39.8 | 88.1 | 20.2 | 81.4 | > 100 | 15.4 µM | 21.3 µM | 11.6 µM | 2.75 µM | 1.61 µM | 18.2 µM | 13.3 µM | 0.0799 | 28 | 16.6 µM
6 | Cn1cnc(SC2=CC(=O)C=C3S[C@H]4C[C@@]23c2c(c(O)c3c5c2=NCCC=5C=N3)N4)c1CC(N)C(=O)O (stereo partly drawn) | 30.2 | 31.6 | 14.5 | 25.4 | > 100 | 3.01 | 9.52 | 36.9 | 36.6 | 32 |  | 16.2 µM | 3.81 µM | 12.7 µM | 16.3 µM | 1.53 µM |  | 18 | 18 | 18.1 µM
7 | [Mn+3].[O-][Cl+3]([O-])([O-])O.[O-]c1ccccc1C=NCCN1CC1.[O-]c1ccccc1C=NCCN1CC1 | > 100 | > 100 | > 100 | 39 | 9.91 | 97.3 | > 100 | > 100 | > 100 | 38.6 | 38.6 µM | 27 µM | 17.8 µM | 17 µM | 1.36 µM | 28.9 µM | 17.1 µM | 50.7 | 35.2 | 15.7 µM
8 | C/C(=N\N)C(CN1CCOCC1)C(c1ccccc1)c1c(O)c2ccccc2oc1=O (stereo not drawn) | > 100 | > 100 | > 100 | > 100 | > 100 | > 63.5 | > 100 | > 100 | > 100 | > 100 |  |  |  |  |  |  |  |  |  | 
9 | Clc1ccc(-c2nnc(-c3nn(-c4ccccc4)c4nc5ccccc5nc34)o2)cc1 | > 100 | > 100 | > 100 | > 100 | > 100 | > 100 | > 100 | > 100 | > 100 | > 100 |  |  |  |  |  |  |  |  |  | 
10 | CON1C(=O)C2(CCCCC2)C(=O)C12C=CC(C)CC2 (stereo not drawn) | > 100 | > 100 | > 100 | > 100 | > 100 | > 100 | > 100 | > 100 | > 100 | > 100 |  |  |  |  |  |  |  |  |  | 
11 | CN1CCN(c2ccncc2S(=O)(=O)N2CCN(C)CC2)CC1 | > 100 | > 100 | > 100 | > 100 | > 100 | > 100 | > 100 | > 100 | > 100 | > 100 |  |  |  |  |  |  |  |  |  | 
12 | C[C@]1(c2nc3c(C(N)=O)cccc3[nH]2)CCCN1 | > 100 | > 100 | > 100 | > 100 | > 100 | > 100 | > 100 | > 100 | > 100 | > 100 | > 65.8 µM and 74.9 µM | 35.5 µM and 48.6 µM | 69.5 µM and 99.8 µM | 61.9 µM and > 86.2 µM | > 100 µM and 61.6 µM | 72.8 µM and > 100 µM | 89.4 µM and > 100 µM | > 100 | > 100 | 75.9 µM and > 100 µM
13 | CCOc1ccc(Nc2ccnc3cc(Cl)ccc23)cc1 | > 100 | > 100 | > 100 | > 100 | > 100 | > 100 | > 100 | > 100 | > 100 | > 100 | > 100 µM | 29.1 µM | 79.9 µM | 84.1 µM | > 100 µM | > 100 µM | > 100 µM | > 100 | > 100 | > 100 µM
14 | COc1cccc(/C=C2\N=C(Cl)OC2=O)c1O | > 100 | > 100 | > 100 | > 100 | > 100 | > 100 | > 100 | > 100 | > 100 | > 100 |  |  |  |  |  |  |  |  |  | 
